# Test: DVS (Dynamic Vapor Sorption) moisture sorption/desorption, hygroscopicity classification
# Type: physicochemical
# Procedure: DVS (Dynamic Vapor Sorption): Around 10-20 mg of samples were used to test its moisture sorption/desorption profiles at 25° C. under 0%˜95%˜0% relative humidity (RH) cycle using dm/dt: 0.01%/min equilibrium and a measurement step of 5% RH.
# Hygroscopicity Classification: Typical %-moisture gain as a function of increased RH was determined by DVS. Samples went through a dynamic test isothermally at 25° C. The test was divided into 2 processes, one was absorption process, the other was desorption process. RH ranged from 0% to 95% with 5% RH for each step, and when dm/dt<=0.01%, it was assumed the water sorption/desorption equilibrium is reached.
smiles,measurement,setting,value
COc1ccc2c(c1)CCN1Cc3c(ccc(OC)c3OS(=O)(=O)c3cccc(F)c3)C[C@@H]21 [Compound 2b],Hygroscopicity classification by DVS,25 °C,not hygroscopic
same,"Change In Mass (%) - ref, Desorption","Cycle 1, target RH 0.0%",−0.0081%
same,"Change In Mass (%) - ref, Sorption","Cycle 1, target RH 0.0%",0.0011%
same,"Change In Mass (%) - ref, Desorption","Cycle 1, target RH 5.0%",−0.0035%
same,"Change In Mass (%) - ref, Hysteresis","Cycle 1, target RH 5.0%",−0.0042%
same,"Change In Mass (%) - ref, Sorption","Cycle 1, target RH 5.0%",0.0007%
same,"Change In Mass (%) - ref, Desorption","Cycle 1, target RH 10.0%",0.0000%
same,"Change In Mass (%) - ref, Hysteresis","Cycle 1, target RH 10.0%",−0.0032%
same,"Change In Mass (%) - ref, Sorption","Cycle 1, target RH 10.0%",0.0032%
same,"Change In Mass (%) - ref, Desorption","Cycle 1, target RH 15.0%",0.0011%
same,"Change In Mass (%) - ref, Hysteresis","Cycle 1, target RH 15.0%",−0.0033%
same,"Change In Mass (%) - ref, Sorption","Cycle 1, target RH 15.0%",0.0044%
same,"Change In Mass (%) - ref, Desorption","Cycle 1, target RH 20.0%",0.0044%
same,"Change In Mass (%) - ref, Hysteresis","Cycle 1, target RH 20.0%",−0.0037%
same,"Change In Mass (%) - ref, Sorption","Cycle 1, target RH 20.0%",0.0081%
same,"Change In Mass (%) - ref, Desorption","Cycle 1, target RH 25.0%",0.0062%
same,"Change In Mass (%) - ref, Hysteresis","Cycle 1, target RH 25.0%",−0.0037%
same,"Change In Mass (%) - ref, Sorption","Cycle 1, target RH 25.0%",0.0099%
same,"Change In Mass (%) - ref, Desorption","Cycle 1, target RH 30.0%",0.0081%
same,"Change In Mass (%) - ref, Hysteresis","Cycle 1, target RH 30.0%",−0.0037%
same,"Change In Mass (%) - ref, Sorption","Cycle 1, target RH 30.0%",0.0118%
same,"Change In Mass (%) - ref, Desorption","Cycle 1, target RH 35.0%",0.0100%
same,"Change In Mass (%) - ref, Hysteresis","Cycle 1, target RH 35.0%",−0.0033%
same,"Change In Mass (%) - ref, Sorption","Cycle 1, target RH 35.0%",0.0134%
same,"Change In Mass (%) - ref, Desorption","Cycle 1, target RH 40.0%",0.0123%
same,"Change In Mass (%) - ref, Hysteresis","Cycle 1, target RH 40.0%",−0.0026%
same,"Change In Mass (%) - ref, Sorption","Cycle 1, target RH 40.0%",0.0150%
same,"Change In Mass (%) - ref, Desorption","Cycle 1, target RH 45.0%",0.0185%
same,"Change In Mass (%) - ref, Hysteresis","Cycle 1, target RH 45.0%",0.0012%
same,"Change In Mass (%) - ref, Sorption","Cycle 1, target RH 45.0%",0.0173%
same,"Change In Mass (%) - ref, Desorption","Cycle 1, target RH 50.0%",0.0204%
same,"Change In Mass (%) - ref, Hysteresis","Cycle 1, target RH 50.0%",0.0035%
same,"Change In Mass (%) - ref, Sorption","Cycle 1, target RH 50.0%",0.0169%
same,"Change In Mass (%) - ref, Desorption","Cycle 1, target RH 55.0%",0.0243%
same,"Change In Mass (%) - ref, Hysteresis","Cycle 1, target RH 55.0%",0.0056%
same,"Change In Mass (%) - ref, Sorption","Cycle 1, target RH 55.0%",0.0187%
same,"Change In Mass (%) - ref, Desorption","Cycle 1, target RH 60.0%",0.0264%
same,"Change In Mass (%) - ref, Hysteresis","Cycle 1, target RH 60.0%",0.0063%
same,"Change In Mass (%) - ref, Sorption","Cycle 1, target RH 60.0%",0.0201%
same,"Change In Mass (%) - ref, Desorption","Cycle 1, target RH 65.0%",0.0294%
same,"Change In Mass (%) - ref, Hysteresis","Cycle 1, target RH 65.0%",0.0083%
same,"Change In Mass (%) - ref, Sorption","Cycle 1, target RH 65.0%",0.0211%
same,"Change In Mass (%) - ref, Desorption","Cycle 1, target RH 70.0%",0.0344%
same,"Change In Mass (%) - ref, Hysteresis","Cycle 1, target RH 70.0%",0.0074%
same,"Change In Mass (%) - ref, Sorption","Cycle 1, target RH 70.0%",0.0270%
same,"Change In Mass (%) - ref, Desorption","Cycle 1, target RH 75.0%",0.0382%
same,"Change In Mass (%) - ref, Hysteresis","Cycle 1, target RH 75.0%",0.0030%
same,"Change In Mass (%) - ref, Sorption","Cycle 1, target RH 75.0%",0.0352%
same,"Change In Mass (%) - ref, Desorption","Cycle 1, target RH 80.0%",0.0446%
same,"Change In Mass (%) - ref, Hysteresis","Cycle 1, target RH 80.0%",0.0037%
same,"Change In Mass (%) - ref, Sorption","Cycle 1, target RH 80.0%",0.0409%

# Reference: patent publication US20230279002A1, “Polymorphs of Crystalline Forms of 3,10-dimethoxy-5,8,13,13a-tetrahydro-6H-isoquinolino[3,2-a]isoquinolin-9-yl 3-fluorobenzenesulfonate and Salts Thereof” (CVI Pharmaceuticals Limited, priority 2020, published 2023)
